Laboratory results: US6506772B1, “Substituted [1,2,4]triazolo[1,5a]pyridine derivatives with activity as adenosine receptor ligands” (Hoffmann-La Roche Inc., priority 2000, dated 2003)
Where two headings read alike, the source gives them in different places.

How the values were obtained:
[1] = target: T1, human adenosine A2A receptor (Homo sapiens, UniProt P29274); test: Human adenosine A2A receptor [3H]-SCH-58261 binding assay
T1 construct: expressed in transfected cells; host or cells: CHO cells, Semliki Forest virus expression system; membrane preparation
T1 sequence (P29274 whole entry): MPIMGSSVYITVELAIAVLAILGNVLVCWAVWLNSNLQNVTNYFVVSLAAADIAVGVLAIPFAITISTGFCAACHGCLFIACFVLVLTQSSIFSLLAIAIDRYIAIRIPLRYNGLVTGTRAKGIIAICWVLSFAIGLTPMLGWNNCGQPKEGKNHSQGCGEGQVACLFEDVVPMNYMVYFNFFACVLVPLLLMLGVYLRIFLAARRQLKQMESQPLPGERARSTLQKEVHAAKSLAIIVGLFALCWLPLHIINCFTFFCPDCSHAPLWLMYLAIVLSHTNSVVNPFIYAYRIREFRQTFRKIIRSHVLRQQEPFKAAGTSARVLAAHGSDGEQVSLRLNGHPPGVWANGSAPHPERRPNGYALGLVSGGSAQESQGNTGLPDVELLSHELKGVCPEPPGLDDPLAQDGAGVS

HA1 adenosine receptor = target: T2, HA1 adenosine receptor (Homo sapiens, UniProt P30542); test: Human adenosine A1 receptor affinity (Ki hA1); format: binding
T2 sequence (P30542 1-326): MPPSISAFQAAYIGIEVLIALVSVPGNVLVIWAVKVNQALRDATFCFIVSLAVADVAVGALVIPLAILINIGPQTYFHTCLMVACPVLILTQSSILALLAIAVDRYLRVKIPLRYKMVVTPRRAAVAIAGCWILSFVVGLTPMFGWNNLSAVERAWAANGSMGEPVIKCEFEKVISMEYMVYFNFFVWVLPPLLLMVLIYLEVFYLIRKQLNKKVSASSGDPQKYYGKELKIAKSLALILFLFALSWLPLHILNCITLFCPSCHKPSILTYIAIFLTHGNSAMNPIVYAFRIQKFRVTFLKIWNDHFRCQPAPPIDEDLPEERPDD

[2] = affinity to human adenosine A2A receptor, read-out: Ki HA2A
[3] = calculated ratio of the affinity to the HA1 receptor to the HA2a receptor
[4] = affinity to human adenosine A1 receptor
[5] = recombinant human A2A in CHO cell membranes, [3H]-SCH-58261, Cheng-Prussoff, read-out: Ki hA2A

| SMILES | Ki [1, 2] | selectivity (A1/A2a) [1, 3] | Ki (HA1 adenosine receptor; [4]) | selectivity (A1/A2a) ([1]; ratio KiHA1 divided by KiHA2A) | Ki [1, 5] | Ki (HA1 adenosine receptor) |
| --- | --- | --- | --- | --- | --- | --- |
| CC1CCCCN1C(=O)c1cc(N)n2nc(-c3nccs3)nc2c1 (stereo not drawn) [Example 329, (5-Amino-2-thiazol-2-yl-[1,2,4]triazolo[1,5-a]pyridin-7-yl)-(2-methyl-piperidin-1-yl)-methanone] | 47.3 nM | 41.9 | 1980 nM |  |  |  |
| CCN(CC)C(=O)c1cc(N)n2nc(-c3ccccc3)nc2c1 [Example 146, 5-Amino-2-phenyl-[1,2,4]triazolo[1,5-a]pyridine-7-carboxylic acid diethylamide] | 130 nM | 15.0 | 1960 nM |  |  |  |
| NC(=O)C1CCN(C(=O)c2cc(N)n3nc(-c4ccc(Br)o4)nc3c2)CC1 [Example 300, 1-[5-Amino-2-(5-bromo-furan-2-yl)-[1,2,4]triazolo[1,5-a]pyridine-7-carbonyl]-piperidine-4-carboxylic acid amide] | 74.7 nM | 5.2 | 385 nM |  |  |  |
| C=CCN(C)C(=O)c1cc(N)n2nc(-c3ccccn3)nc2c1 [Example 409, 5-Amino-2-pyridin-2-yl-[1,2,4]triazolo[1,5-a]pyridine-7-carboxylic acid allyl-methyl-amide] |  |  |  | 16.5 | 99.8 nM | 1650 nM |
| COc1ccc(-c2nc3cc(C(=O)N(Cc4ccccc4)C(C)C)cc(N)n3n2)s1 [Example 55, 5-Amino-2-(5-methoxy-thiophen-2-yl)-[1,2,4]triazolo[1,5-a]pyridine-7-carboxylic acid benzyl-isopropyl-amide] | 28.3 nM | 2.7 | 76.4 nM |  |  |  |
| Nc1cc(C(=O)NCc2ccccc2Br)cc2nc(-c3ccccn3)nn12 [Example 38, 5-Amino-2-pyridin-2-yl-[1,2,4]triazolo[1,5-a]pyridine-7-carboxylic acid 2-bromo-benzylamide] | 23.8 nM | 4.6 | 109 nM |  |  |  |
| C=CCN(C)C(=O)c1cc(N)n2nc(-c3nccs3)nc2c1 [Example 283, 5-Amino-2-thiazol-2-yl-[1,2,4]triazolo[1,5-a]pyridine-7-carboxylic acid allyl-methyl-amide] | 116 nM | 27.0 | 3130 nM |  |  |  |
| C=CCN(CC=C)C(=O)c1cc(N)n2nc(-c3ccccn3)nc2c1 [Example 416, 5-Amino-2-pyridin-2-yl-[1,2,4]triazolo[1,5-a]pyridine-7-carboxylic acid diallylamide] |  |  |  | 17.4 | 48.1 nM | 835 nM |
| CCCCNC(=O)c1cc(N)n2nc(-c3nccs3)nc2c1 [Example 119, 5-Amino-2-thiazol-2-yl-[1,2,4]triazolo[1,5-a]pyridine-7-carboxylic acid butylamide] | 17.1 nM | 25.0 | 429 nM |  |  |  |
| CCN(Cc1ccccc1F)C(=O)c1cc(N)n2nc(-c3cccnc3)nc2c1 [Example 91, 5-Amino-2-pyridin-3-yl-[1,2,4]triazolo[1,5-a]pyridine-7-carboxylic acid ethyl-(2-fluoro-benzyl)-amide] | 144 nM | 5.7 | 815 nM |  |  |  |
| COCCN(CCOC)C(=O)c1cc(N)n2nc(-c3ccc(Cl)o3)nc2c1 [Example 260, 5-Amino-2-(5-chloro-furan-2-yl)-[1,2,4]triazolo[1,5-a]pyridine-7-carboxylic acid bis-(2-methoxy-ethyl)-amide] | 13.4 nM | 20.2 | 270 nM |  |  |  |
| Cc1ccc(-c2nc3cc(C(=O)NC4CCCCC4)cc(N)n3n2)o1 [Example 138, 5-Amino-2-(5-methyl-furan-2-yl)-[1,2,4]triazolo[1,5-a]pyridine-7-carboxylic acid cyclohexylamide] | 123 nM | 10.3 | 1270 nM |  |  |  |
| CCN(Cc1ccccc1)C(=O)c1cc(N)n2nc(-c3cccnc3)nc2c1 [Example 88, 5-Amino-2-pyridin-3-yl-[1,2,4]triazolo[1,5-a]pyridine-7-carboxylic acid benzyl-ethyl-amide] | 278 nM | 3.6 | 993 nM |  |  |  |
| Cc1ccc(-c2nc3cc(C(=O)N4CCCCC4)cc(N)n3n2)s1 [Example 114, [5-Amino-2-(5-methyl-thiophen-2-yl)-[1,2,4]triazolo[1,5-a]pyridin-7-yl]-piperidin-1-yl-methanone] | 28.3 nM | 27.3 | 772 nM |  |  |  |
| CC(C)N(Cc1ccccc1)C(=O)c1cc(N)n2nc(-c3cccn3C)nc2c1 [Example 135, 5-Amino-2-(1-methyl-1H-pyrrol-2-yl)-[1,2,4]triazolo[1,5-a]pyridine-7-carboxylic acid benzyl-isopropyl-amide] | 166 nM | 10.9 | 1820 nM |  |  |  |
| C[C@@H]1CN(C(=O)c2cc(N)n3nc(-c4ccc(Br)o4)nc3c2)C[C@H](C)O1 [Example 360, [5-Amino-2-(5-bromo-furan-2-yl)-[1,2,4]triazolo[1,5-a]pyridin-7-yl]-(cis-2,6-dimethyl-morpholin-4-yl)-methanone] | 7.7 nM | 54.9 | 422 nM |  |  |  |
| CC1CN(C(=O)c2cc(N)n3nc(-c4ccc(Cl)o4)nc3c2)CC(C)O1 (stereo not drawn) [Example 257, [5-Amino-2-(5-chloro-furan-2-yl)-[1,2,4]triazolo[1,5-a]pyridin-7-yl]-(2,6-dimethyl-morpholin-4-yl)-methanone] | 28.9 nM | 28.3 | 819 nM |  |  |  |
| Nc1cc(C(=O)NCc2ccccc2Br)cc2nc(-c3ccc(Br)o3)nn12 [Example 167] | 42.7 nM | 4.6 | 196 nM |  |  |  |
| NC(=O)[C@@H]1CCCN1C(=O)c1cc(N)n2nc(-c3ccc(Br)o3)nc2c1 [Example 389, 1-[5-Amino-2-(5-bromo-furan-2-yl)-[1,2,4]triazolo[1,5-a]pyridine-7-carbonyl]-D-pyrrolidine-2-carboxylic acid amide] |  |  |  | 39.1 | 9.8 nM | 383 nM |
| CC1CCCN1C(=O)c1cc(N)n2nc(-c3nccs3)nc2c1 (stereo not drawn) [Example 286, (5-Amino-2-thiazol-2-yl-[1,2,4]triazolo[1,5-a]pyridin-7-yl)-(2-methyl-pyrrolidin-1-yl)-methanone] | 32.4 nM | 91.8 | 2970 nM |  |  |  |
| Nc1cc(C(=O)N2CCc3ccccc3C2)cc2nc(-c3ccccn3)nn12 [Example 30, (5-Amino-2-pyridin-2-yl-[1,2,4]triazolo[1,5-a]pyridin-7-yl)-(3,4-dihydro-1H-isoquinolin-2-yl)-methanone] | 212 nM | 10.1 | 2140 nM |  |  |  |
| CC(C)N(Cc1ccccc1)C(=O)c1cc(N)n2nc(-c3cccnc3)nc2c1 [Example 86, 5-Amino-2-pyridin-3-yl-[1,2,4]triazolo[1,5-a]pyridine-7-carboxylic acid benzyl-isopropyl-amide] | 252 nM | 3.2 | 819 nM |  |  |  |
| CCCCCN(C)C(=O)c1cc(N)n2nc(-c3nccs3)nc2c1 [Example 292, 5-Amino-2-thiazol-2-yl-[1,2,4]triazolo[1,5-a]pyridine-7-carboxylic acid methyl-pentyl-amide] | 108 nM | 13.9 | 1510 nM |  |  |  |
| Cc1ccsc1-c1nc2cc(C(=O)NC(C)c3ccccc3)cc(N)n2n1 (stereo not drawn) [Example 190, 5-Amino-2-(3-methyl-thiophen-2-yl)-[1,2,4]triazolo[1,5-a]pyridine-7-carboxylic acid (1-phenyl-ethyl)-amide] | 365 nM | 0.1 | 47.3 nM |  |  |  |
| CC1CCCN(C(=O)c2cc(N)n3nc(-c4ccccn4)nc3c2)C1 (stereo not drawn) [Example 419, (5-Amino-2-pyridin-2-yl-[1,2,4]triazolo[1,5-a]pyridin-7-yl)-(3-methyl-piperidin-1-yl)-methanone] |  |  |  | 35.5 | 44.9 nM | 1600 nM |
| Nc1cc(C(=O)N2CCCCCC2)cc2nc(-c3nccs3)nn12 [Example 317, (5-Amino-2-thiazol-2-yl-[1,2,4]triazolo[1,5-a]pyridin-7-yl)-azepan-1-yl-methanone] | 34.5 nM | 33.6 | 1160 nM |  |  |  |
| Nc1cc(C(=O)NCc2ccc(F)cc2)cc2nc(-c3ccoc3)nn12 [Example 227, 5-Amino-2-furan-3-yl-[1,2,4]triazolo[1,5-a]pyridine-7-carboxylic acid 4-fluoro-benzylamide] | 192 nM | 3.8 | 736 nM |  |  |  |
| COc1ccccc1CNC(=O)c1cc(N)n2nc(-c3sccc3C)nc2c1 [Example 192, 5-Amino-2-(3-methyl-thiophen-2-yl)-[1,2,4]triazolo[1,5-a]pyridine-7-carboxylic acid 2-methoxy-benzylamide] | 129 nM | 0.9 | 112 nM |  |  |  |
| Nc1cc(C(=O)NCc2ccccc2Br)cc2nc(-c3ccccc3O)nn12 [Example 160, 5-Amino-2-(2-hydroxy-phenyl)-[1,2,4]triazolo[1,5-a]pyridine-7-carboxylic acid 2-bromo-benzylamide] | 126 nM | 1.1 | 139 nM |  |  |  |
| CCCCNC(=O)c1cc(N)n2nc(-c3ccco3)nc2c1 [Example 104, 5-Amino-2-furan-2-yl-[1,2,4]triazolo[1,5-a]pyridine-7-carboxylic acid butylamide] | 4.9 nM | 46.0 | 223 nM |  |  |  |
